# Laboratory results reported in patent US8409602B2, “Sealants for fetal membrane repair” (Northwestern University, priority 2009, dated 2013).
# Tests used:
# [1] = test system: epididymal fat pad; test: Material-only implantation at the murine epididymal fat pad; set-up: species or system C57BL6 mice; settings: mouse, in vivo
# Protocol: Material-only implantation. Healthy, age-matched male C57BL6 mice (Jackson Laboratories, Bar Harbor, Me.) were anesthetized with nebulized isoflurane (IsoThesia; Butler/Abbott Laboratories, North Chicago, Ill.) and intraperitoneal injection of 2% Avertin (2,2,2-tribromoethanol, Sigma) at 0.3 mg/g body weight, prior to shaving of the abdomen and sterile preparation of the surgical site. The left epididymal fat pad was exposed through midline lower abdominal incision and manipulation of the tissue flap. This thin, well-vascularized tissue is analogous to the omentum of larger mammals and has dimensions on the order of 1.5—1.5 cm. Sterile, two-component mixing and adhesive delivery was achieved by a dual-barrel blending connector with mixer device (Micromedics, St Paul, Minn.) containing sterile-filtered 300 mg/mL cPEG and 0.056 M sodium periodate, respectively.
# Following topical delivery of approximately […] adhesive, the deposition site was left undisturbed for 1 min. The sample site was then manually reinserted into the lower abdominal cavity and the incision closed with double-layer suture. Mice were monitored postoperatively until conscious recovery. At three days, two weeks, six weeks, and one-year post-implant, the adhesive and associated adipose tissue was surgically removed from anesthetized mice, prior to euthanasia. […]
# [2] = test system: fetal membranes; test: Direct contact-induced apoptosis (TUNEL) in fetal membranes; assay type: cell-based
# Protocol: Toxicity tests. Toxicity of sealants for fetal membrane cells was evaluated using direct contact and elution tests, as per International Organization for Standardization (ISO) 10993-5 guidelines.
# Direct contact cytotoxicity. […] 4.5 software (Carl Zeiss).
# [3] = test system: fetal membranes
# Protocol: Direct contact cytotoxicity. Direct contact studies were performed with term fetal membranes obtained from three cases. The amniotic layer was chosen for sealant application (FIG. 1A) because this layer was proposed to be the strength-bearing layer of fetal membranes and major determinant for PPROM.^31 2×1 cm patches of freshly harvested fetal membranes were placed into wells of 6-well plates with amnion layer up. […] Membranes covered with sealant were covered with 3 mL culture medium (Ham's F-12/DMEM supplemented with 10% FBS, 100 U/ml penicillin, and 100 μg/ml streptomycin) and cultured for 24 h at 37° C. […] Deparaffinized sections were either stained with hematoxylin-eosin (H/E), or stained for apoptotic cells using TUNEL technology (Terminal deoxynucleotidyl transferase dUTP nick end labeling; In Situ Cell Death Detection Kit, Fluorescein (Roche Diagnostics GmbH, Mannheim, Germany). For total cell counts, all cell nuclei were counterstained with 4′,6-diamidin-2′-phenylindol-dihydrochlorid (DAPI; Sigma, Buchs, Switzerland). The histologic images were taken with a Zeiss Axiovert 200M fluorescent microscope (Carl Zeiss, Goettingen, Germany) equipped with an Zeiss AxioCam MRc digital camera and analysed with AxioVision Rel. […] One tissue section per case was analysed, taking four optical fields per section for analysis.
substance,measurement,setting,value
four-armed catechol-terminated polyethylene glycol (cPEG) [cPEG adhesive],immediate local reaction at deposition site,[1],no immediate visible inflammation or redness
same,non-specific postsurgical adhesions,[1],no evidence of non-specific postsurgical adhesions
same,apoptosis compared with control,[2],did not enhance apoptosis over control
same,effect on membrane morphology,[3],normal membrane morphology appeared maintained
